Here are results for one molecule from PMC7414866, “The Rnf complex is a Na^+ coupled respiratory enzyme in a fermenting bacterium, Thermotoga maritima” (Communications Biology, 2020).

Structures are written as SMILES.

The target of the test is T1, Na+-F1FO ATP synthase (Thermotoga maritima, UniProt O50550+Q9X1U7+Q9X1V0).
T1 construct: gene atpE; native F1FO complex purified with DDM, no tags; 550 kDa on native PAGE; co-purified with Rnf; with ATP synthase gamma chain; ATP synthase subunit delta; ATP synthase epsilon chain; ATP synthase subunit a; ATP synthase subunit b
Description: ATP hydrolysis (phosphate release) after preincubation. Type of test: biochemical. As to conditions: covalent; preincubation without Na+ 30 min room temperature, then 5 min 80 °C; 3 mM K2-ATP, pH 7.4; competes with Na+.

In the case of `C(=NC1CCCCC1)=NC1CCCCC1` [DCCD], the inhibition entry is reported as “DCCD inhibited ATP hydrolysis but inhibition was relieved by addition of Na^+”.
